According to US11274124B2, “Tubulysin analogues as anticancer agents and payloads for antibody-drug conjugates and methods of treatment therewith” (William Marsh Rice University, priority 2017, dated 2022):
Read-outs that look alike come from different tables or passages of the source.

Experiments:
[1] = tested on: MES SA (uterine sarcoma cell line); assay: In vitro cytotoxicity assay (CellTiter-Glo, 72 hours), MES SA; assay type: cell-based; conditions: Homo sapiens, MES-SA
[2] = tested on: HEK 293T (human embryonic kidney cancer cell line); assay: In vitro cytotoxicity assay (CellTiter-Glo, 72 hours), HEK 293T; assay type: cell-based; conditions: Homo sapiens, HEK-293T
[3] = tested on: MES SA DX (MES SA cell line with marked multi-drug resistance); assay: In vitro cytotoxicity assay (CellTiter-Glo, 72 hours), MES SA DX; conditions: for IC50: Homo sapiens, MES-SA, 72 h
[4] = tested on: MES SA, MES SA DX and HEK 293T cells; assay: In vitro cytotoxicity assay, structure-activity discussion over the cell lines tested; conditions: refers to Tables 2 and 3
[5] = 72 h, read-out: MES SA, IC50 Value in nM
[6] = 72 h, read-out: HEK 293T, IC50 Value in nM
[7] = read-out: MES SA DX, IC50 Value in nM

SMILES	IC50 [1, 5] [nM]	IC50 [2, 6] [nM]	IC50 [3, 7] [nM]	cytotoxicity potency (in words, structure-activity discussion) [4]	IC50 ([1]; Table 2, 72 hours, CellTiter-Glo, read-out: MES SA, IC50 Value in nM) [nM]	IC50 ([2]; Table 2, 72 hours, CellTiter-Glo, read-out: HEK 293T, IC50 Value in nM) [nM]	IC50 ([1]; 72 h, read-out: MES SA, IC50) [nM]	IC50 ([2]; 72 h, read-out: HEK 293T, IC50) [nM]	IC50 ([3]; read-out: MES SA DX, IC50) [nM]	cytotoxicities against the marked drug resistant cancer cell line MES SA DX (in words) [3]
CCOC(=O)[C@@H](C)CC(Cc1ccccc1)NC(=O)c1csc([C@@H](CC(C(C)C)N(C)C(=O)[C@@H](NC(=O)[C@H]2C[C@H](O[Si](C)(C)C(C)(C)C)CCN2C)C(C)C)OC(C)=O)n1 (stereo in doubt) [Tb77, Ethyl (2S,4S)-4-[({2-[(1R,3S)-1-acetoxy-3-{[(2S)-2-({[(4R)-4-{[tert-butyl(dimethyl)silyl]oxy}-1-meth-ylpiperidin-2-yl]carbonyl}amino)-3-methylbutanoyl](methyl)amino}-4-methylpentyl]-1,3-thiazol-4-yl}carbonyl)amino]-2-methyl-5-phenylpentanoate]	848	> 400	> 2500	insignificant or low biological activity						
CC[C@H](C)[C@H](NC(=O)[C@H]1CCCCN1C)C(=O)N(C)[C@H](CCc1nc(C(=O)N[C@@H](Cc2ccccc2)C[C@H](C)C(=O)OC)cs1)C(C)C [PTb-D42]				significant reduction in potency						
CC[C@H](C)[C@H](NC(=O)[C@H]1CCCCN1C)C(=O)N(C)[C@H](CCc1nc(C(=O)N[C@@H](Cc2ccccc2)C[C@H](C)C(=O)O)cs1)C(C)C [PTb-D43, pretubulysin D, reference compound]				significant reduction in potency						
CCCCN1CCCC[C@@H]1C(=O)N[C@H](C(=O)N(C)[C@H](CCc1nc(C(=O)N[C@@H](Cc2ccccc2)C[C@H](C)C(=O)OC)cs1)C(C)C)[C@@H](C)CC [PTb-D47]	> 1000	> 1000	> 1000	insignificant or low biological activity						
CCCCN1CCCC[C@@H]1C(=O)N[C@H](C(=O)N(C)[C@H](CCc1nc(C(=O)N[C@@H](Cc2ccccc2)C[C@H](C)C(=O)OC)cs1)C(C)C)C(C)C [PTb-D49]			> 1000	insignificant or low biological activity	> 1000	> 1000				
CC[C@H](C)[C@H](NC(=O)c1cccn1C)C(=O)N(C)[C@H](C[C@@H](OC(C)=O)c1nc(C(=O)N[C@@H](Cc2ccccc2)C[C@H](C)C(=O)OC)cs1)C(C)C [Tb50]	> 1000	> 1000	> 1000	insignificant or low biological activity						
CC[C@H](C)[C@H](NC(=O)c1nccn1C)C(=O)N(C)[C@H](C[C@@H](OC(C)=O)c1nc(C(=O)N[C@@H](Cc2ccccc2)C[C@H](C)C(=O)OC)cs1)C(C)C [Tb51]	> 1000	> 1000	> 1000	insignificant or low biological activity						
CCCCN1CCCC[C@@H]1C(=O)N[C@H](C(=O)N(C)[C@H](C[C@@H](OC(C)=O)c1nc(C(=O)N[C@H]2CC[C@H](C(=O)OC)CC2)cs1)C(C)C)C(C)C [Tb54, Methyl trans-4-[({2-[(1R,3R)-1-acetoxy-3-{[(2S)-2-({[(2R)-1-butylpiperidin-2-yl]carbonyl}amino)-3-methylbutanoyl](methyl)amino}-4-methylpentyl]-1,3-thiazol-4-yl}carbonyl)amino]cyclohexanecarboxylate]	> 1000	> 1000	> 1000	insignificant or low biological activity						
CC(=O)O[C@H](C[C@H](C(C)C)N(C)C(=O)[C@H](C)NC(=O)[C@H]1CCCCN1C)c1nc(C(=O)N[C@@H](Cc2ccccc2)C[C@H](C)C(=O)O)cs1 [Tb91, (2S,4R)-4-[({2-[(1R,3R)-1-Acetoxy-4-methyl-3-{methyl[(2S)-2-({[(2R)-1-methylpiperidin-2-yl]car-bonyl}amino)propanoyl]amino}pentyl]-1,3-thiazol-4-yl}carbonyl)amino]-2-methyl-5-phenylpentanoic acid]	> 1000	> 1000	> 1000							
CC(=O)O[C@H](C[C@H](C(C)C)N(C)C(=O)[C@H](C)NC(=O)[C@H]1CCCN1C)c1nc(C(=O)N[C@@H](Cc2ccccc2)C[C@H](C)C(=O)O)cs1 [Tb92, (2S,4R)-4-[({2-[(1R,3R)-1-Acetoxy-4-methyl-3-{methyl[(2S)-2-({[(2R)-1-methylpyrrolidin-2-yl]car-bonyl}amino)propanoyl]amino}pentyl]-1,3-thiazol-4-yl}carbonyl)amino]-2-methyl-5-phenylpentanoic acid]	> 1000	> 1000	> 1000							
COC(=O)C12C3C4C1C1C2C3C41NC(=O)c1csc([C@@H](C[C@H](C(C)C)N(C)C(=O)[C@@H](NC(=O)[C@H]2CCCCN2C)C2CC2)OC(C)=O)n1 (stereo partly drawn) [Tb99, Methyl 4-[({2-[(1R,3R)-1-acetoxy-3-{[(2S)-2-cyclopropyl-2-({[(2R)-1-methylpiperidin-2-yl]carbonyl}-amino)acetyl](methyl)amino}-4-methylpentyl]-1,3-thiazol-4-yl}carbonyl)amino]cubane-1-carboxylate]	> 1000	> 1000	> 1000							
COC(=O)C12CC(NC(=O)c3csc([C@@H](C[C@H](C(C)C)N(C)C(=O)[C@@H](NC(=O)[C@H]4CCCCN4C)C4CC4)OC(C)=O)n3)(C1)C2 [Tb100, Methyl 3-{[(2-{1-acetoxy-3-[(cyclopropyl{[(1-methylpiperidin-2-yl)carbonyl]amino}acetyl)(methyl)-amino]-4-methylpentyl}-1,3-thiazol-4-yl)carbonyl]amino}bicyclo[1.1.1]pentane-1-carboxylate]	15.2	16.5	> 1000							
COC(=O)CC12CC(NC(=O)c3csc([C@@H](C[C@H](C(C)C)N(C)C(=O)[C@@H](NC(=O)[C@H]4CCCCN4C)C(C)C)OC(C)=O)n3)(C1)C2 [Tb103, Methyl (3-{[(2-{1-acetoxy-4-methyl-3-[methyl(3-methyl-2-{[(1-methylpiperidin-2-yl)carbonyl]amino}-butanoyl)amino]pentyl}-1,3-thiazol-4-yl)carbonyl]amino}bicyclo[11.1.]pent-1-yl)acetate]	2.74	1.79	22.6							
CC(=O)O[C@H](C[C@H](C(C)C)N(C)C(=O)[C@@H](NC(=O)[C@H]1CCCCN1C)C(C)C)c1nc(C(=O)N[C@@H](Cc2ccccc2)CC2C(=O)OC(C)(C)OC2=O)cs1 [Tb114, 1-(4-{[1-(2,2-Dimethyl-4,6-dioxo-1,3-dioxan-5-yl)-3-phenylpropan-2-yl]carbamoyl}-1,3-thiazol-2-yl)-4-methyl-3-[methyl(3-methyl-2-{[(1-methylpiperidin-2-yl)carbonyl]amino}butanoyl)amino]-pentyl acetate]	1.23	0.524	> 400							
COC(=O)[C@H](C[C@H](Cc1ccccc1)NC(=O)c1csc([C@@H](C[C@H](C(C)C)N(C)C(=O)[C@@H](NC(=O)[C@H]2CCCCN2C)C(C)C)OC(C)=O)n1)N(C)C [Tb117, Methyl (2S)-4-{[(2-{1-acetoxy-4-methyl-3-[methyl(3-methyl-2-{[(1-methylpiperidin-2-yl)carbonyl]-amino}butanoyl)amino]pentyl}-1,3-thiazol-4-yl)carbonyl]amino}-2-(dimethylamino)-5-phenylpentanoate]	0.099	0.059	4.63				0.099	0.059	4.63	
CCN[C@@H](C[C@H](Cc1ccccc1)NC(=O)c1csc([C@@H](C[C@H](C(C)C)N(C)C(=O)[C@@H](NC(=O)[C@H]2CCCCN2C)C(C)C)OC(C)=O)n1)C(=O)OC [Tb118, Methyl (2S)-4-{[(2-{1-acetoxy-4-methyl-3-[methyl(3-methyl-2-{[(1-methylpiperidin-2-yl)carbonyl]-amino}butanoyl)amino]pentyl}-1,3-thiazol-4-yl)carbonyl]amino}-2-(ethylamino)-5-phenylpentanoate]	0.14	0.015	5.6				0.14	0.015	5.6	relatively potent (low nanomolar)
COC(=O)[C@@H](CO)C[C@H](Cc1ccccc1)NC(=O)c1csc([C@@H](C[C@H](C(C)C)N(C)C(=O)[C@@H](NC(=O)[C@H]2CCCCN2C)C(C)C)OC(C)=O)n1 [Tb119, Methyl (2R,4R)-4-{2-[(1R,3R)-1-acetoxy-3-{(S)—N,3-dimethyl-2-[(R)-1-methylpiperidine-2-carboxamido]butanamido}-4-methylpentyl]thiazole-4-carboxamido}-2-(hydroxymethyl)-5-phenylpentanoate]	0.093	0.041	> 14				0.093	0.041	> 14	
COC(=O)[C@H](CO)C[C@H](Cc1ccccc1)NC(=O)c1csc([C@@H](C[C@H](C(C)C)N(C)C(=O)[C@@H](NC(=O)[C@H]2CCCCN2C)C(C)C)OC(C)=O)n1 [Tb120, Methyl (2S,4R)-4-{2-[(1R,3R)-1-acetoxy-3-{(S)—N,3-dimethyl-2-[(R)-1-methylpiperidine-2-carboxamido]butanamido}-4-methylpentyl]thiazole-4-carboxamido}-2-(hydroxymethyl)-5-phenylpentanoate]	0.059	0.039	> 14				0.059	0.039	> 14	
